The conditions of data set [1]: cited from earlier work.
Data set [2] in a line: UV-vis spectroscopy of enabler interaction with PVP (absorbance at 236 nm). Format: physicochemical.
The nature of data set [3]: GC-head space: effect of enablers on the encapsulation of menthol and limonene combination by PVP. It counts as physicochemical. The note with it: for GC-HS area (% of control sample) Limonene / GC-HS area (% of control sample) Menthol / GC-HS area Limonene / GC-HS area Menthol: menthol + limonene with PVP.
Data set [4] in a line: GC-head space: effect of enablers on the encapsulation of menthol by PVP. It counts as physicochemical. The settings on record: for ability of enabler to encapsulate menthol: GC-Head space against control; for ability of enabler to encapsulate menthol / GC-HS area Menthol: with PVP; for GC-HS area (% of control sample): menthol, control without PVP.
A short description of data set [5]: GC head space of benefit agents in the presence of PVP and BHT. It counts as physicochemical.

Data on eleven compounds can be found in patent US12685983B2, “Benefit agent delivery system” (ITC Limited, priority 2020, dated 2026).

The structures appear in SMILES notation. Like-named read-outs stand apart in the source and are kept apart here.

`CCCCCCCCCCCCN` [Dodecyl amine]: the LogP value in data set [1] is 4.76.
`CCCCCCCCCCCCCCCCO` [Cetyl alcohol, reference compound]: in data set [2] (UV-vis, concentration not given), the “interaction of the enabler with the polymer” value is given as “No interaction”. Also, the LogP value in data set [1] was 7.25.
Turning to `CCCCCCCCCCCC(=O)OC` [methyl laurate], the LogP value in data set [1] was 5.41.
On to `CCCCCCCCCCN` [decyl amine], for which, in data set [1], the LogP value was 1.92.
Turning to `CC1CCC(C(C)C)C(O)C1` (stereo not shown) [Menthol], the “selectivity of encapsulation in menthol and limonene combination” value in data set [3] (PVP with enablers) was “preferentially encapsulated as against limonene”.
For `CC(C)=O` [Acetone], the “ability of enabler to encapsulate menthol” value (“ability of enabler” for short) in data set [4] is given as “effectively encapsulate menthol”. Besides, the “GC-HS area Menthol” value in data set [4] (enabler concentration 0.05%) amounted to 541; in data set [4] (enabler concentration 0.1%), 179; in data set [4] (enabler concentration 0.5%), 199; in data set [3] (enabler 0.05%), 220; in data set [3] (enabler 0.1%), 369; in data set [3] (enabler 0.5%) it was 891. Moreover, the “GC-HS area (% of control sample)” value in data set [4] (enabler 0.05%) is given as 0.72 % of control sample; in data set [4] (enabler 0.1%), 0.24 % of control sample; in data set [4] (enabler 0.5%), 0.27 % of control sample. Also, the “GC-HS area (% of control sample) Limonene” value was 88.91 % of control sample in data set [3] (enabler 0.05%), 103.37 % of control sample in data set [3] (enabler 0.1%) and 106.24 % of control sample in data set [3] (enabler 0.5%). For the same compound, the “GC-HS area (% of control sample) Menthol” value in data set [3] (enabler 0.05%) is listed as 1.04 % of control sample; in data set [3] (enabler 0.1%) it was 1.74 % of control sample; in data set [3] (enabler 0.5%), 4.21 % of control sample. Further, the “GC-HS area Limonene” value in data set [3] (enabler 0.05%) is recorded as 1825472; in data set [3] (enabler 0.1%) it was 1886916; in data set [3] (enabler 0.5%), 2004605.
On to `CC1=CCC2CC1C2(C)C` (stereo not drawn) [α-Pinene], for which the “encapsulation by PVP in the presence of BHT as enabler” value in data set [5] is listed as “not encapsulated”. The LogP value in data set [1] is 4.83.
Compound `Cc1cc(C(C)(C)C)c(O)c(C(C)(C)C)c1` [BHT, Butylated hydroxy toluene] registered an Absorbance in data set [2] (236 nm, enabler 10 ppm with PVP in 95% v/v ethanol) of 0.155. Besides, the “interaction of enabler with PVP” value in data set [2] (UV-vis, 10 ppm) is given as “comparatively lower activities”. The “GC-HS area Menthol” value in data set [4] (enabler concentration 0.05%) stood at 10608; in data set [4] (enabler concentration 0.1%), 10773; in data set [4] (enabler concentration 0.5%), 8798; in data set [3] (enabler 0.05%), 4929; in data set [3] (enabler 0.1%), 6449; in data set [3] (enabler 0.5%), 12330. Moreover, the “GC-HS area (% of control sample)” value in data set [4] (enabler 0.05%) is 14.14 % of control sample; in data set [4] (enabler 0.1%), 14.36 % of control sample; in data set [4] (enabler 0.5%), 11.73 % of control sample. For the same compound, the “GC-HS area (% of control sample) Limonene” value in data set [3] (enabler 0.05%) is on record as 108.95 % of control sample; in data set [3] (enabler 0.1%), 102.91 % of control sample; in data set [3] (enabler 0.5%), 108.30 % of control sample. Moreover, the “GC-HS area (% of control sample) Menthol” value in data set [3] (enabler 0.05%) is given as 23.30 % of control sample; in data set [3] (enabler 0.1%), 30.48 % of control sample; in data set [3] (enabler 0.5%), 58.28 % of control sample. Moreover, the “GC-HS area Limonene” value amounted to 1813235 in data set [3] (enabler 0.05%), 1866057 in data set [3] (enabler 0.1%) and 2020945 in data set [3] (enabler 0.5%).
On to `CC(=O)O` [Acetic acid], for which, in data set [4], the “ability of enabler” value was “effectively encapsulate menthol”. Also, the “GC-HS area Menthol” value is given as 708 in data set [4] (enabler concentration 0.05%); 1030 in data set [4] (enabler concentration 0.1%); 925 in data set [4] (enabler concentration 0.5%); 105 in data set [3] (enabler 0.05%); 174 in data set [3] (enabler 0.1%); 399 in data set [3] (enabler 0.5%). For the same compound, the “GC-HS area (% of control sample)” value in data set [4] (enabler 0.05%) was 0.94 % of control sample; in data set [4] (enabler 0.1%), 1.37 % of control sample; in data set [4] (enabler 0.5%) it was 1.23 % of control sample. For the same compound, the “GC-HS area (% of control sample) Limonene” value in data set [3] (enabler 0.05%) is given as 91.77 % of control sample; in data set [3] (enabler 0.1%) it was 112.66 % of control sample; in data set [3] (enabler 0.5%), 97.95 % of control sample. Moreover, the “GC-HS area (% of control sample) Menthol” value in data set [3] (enabler 0.05%) is recorded as 0.50 % of control sample; in data set [3] (enabler 0.1%), 0.82 % of control sample; in data set [3] (enabler 0.5%), 1.89 % of control sample. For the same compound, the “GC-HS area Limonene” value was determined as 1860568 in data set [3] (enabler 0.05%), 2096101 in data set [3] (enabler 0.1%) and 2053175 in data set [3] (enabler 0.5%).
Compound `Oc1cc(Cl)ccc1Oc1ccc(Cl)cc1Cl` [Triclosan] registered an Absorbance in data set [2] of 0.961. In addition, in data set [2], the “interaction of enabler with PVP” value is recorded as “stronger interaction with PVP”. Besides, the “ability of enabler” value in data set [4] was “effectively encapsulate menthol”. For the same compound, the “GC-HS area Menthol” value is 4977 in data set [4] (enabler concentration 0.05%); 3482 in data set [4] (enabler concentration 0.1%); 6103 in data set [4] (enabler concentration 0.3%); 759 in data set [3] (enabler 0.05%); 274 in data set [3] (enabler 0.1%); 841 in data set [3] (enabler 0.5%). Moreover, the “GC-HS area (% of control sample)” value in data set [4] (enabler 0.05%) is 6.63 % of control sample; in data set [4] (enabler 0.1%) it was 4.64 % of control sample; in data set [4] (enabler 0.3%), 8.14 % of control sample. In addition, the “GC-HS area (% of control sample) Limonene” value in data set [3] (enabler 0.05%) is reported as 95.29 % of control sample; in data set [3] (enabler 0.1%), 99.50 % of control sample; in data set [3] (enabler 0.5%) it was 105.82 % of control sample. Further, the “GC-HS area (% of control sample) Menthol” value in data set [3] (enabler 0.05%) is recorded as 3.59 % of control sample; in data set [3] (enabler 0.1%) it was 1.30 % of control sample; in data set [3] (enabler 0.5%) it was 3.98 % of control sample. Also, the “GC-HS area Limonene” value in data set [3] (enabler 0.05%) was 1925700; in data set [3] (enabler 0.1%), 1916012; in data set [3] (enabler 0.5%) it was 2027488.
As for `CCCCC(CC)COC(=O)C=Cc1ccc(OC)cc1` (stereo not shown) [Octyl methoxy cinnamate], in data set [1], the LogP value is reported as 5.8.
